Assay results reported in EP4806892A1, “CEREBLON E3 UBIQUITIN LIGASE INHIBITOR” (GAN & LEE PHARMACEUTICALS CO., LTD., priority 2023, dated 2025).

What was measured:
VCaP cell = VCaP cell proliferation inhibition (WST-8); format: cell-based; details: Homo sapiens, VCaP cells, 168 hours, read-out: IC50 for inhibiting VCAP cell proliferation
Method: VCaP cells (ATCC, CRL-2876) were cultured in DMEM (Gibco, 11995-065) complete medium containing 10% fetal bovine serum (Hyclone, SH30406.05). On the first day of the experiment, VCaP cells were seeded at a density of 15,000 cells/well in a 96-well plate using DMEM medium containing 10% fetal bovine serum, with 100 µL of cell suspension per well, and cultured overnight in a cell culture incubator at 37°C and 5% CO2. […] The final concentration of the compound was 9 concentration points of 5-fold serial dilution starting from 10 µM. The wells to which 100 µL of DMEM medium containing 10% fetal bovine serum was added were set as blank controls and cultured in a cell culture incubator at 37°C and 5% CO2 for 168 hours. On the ninth day, the 96-well cell culture plate was removed and 1/10 volume of WST-8 (Beytime, C0040) reagent was added to each well. The absorbance at 450 nm was measured using a microplate reader (TECAN, F50).

AR protein = target: T1, AR protein (Homo sapiens, UniProt P10275); experiment: AR protein degradation in VCaP cells (Western blot); format: cell-based; details: 8h
T1 construct: AR-positive human prostate cancer cells VCaP (cell source: ATCC); host or cells: VCaP
T1 sequence (P10275 1-920): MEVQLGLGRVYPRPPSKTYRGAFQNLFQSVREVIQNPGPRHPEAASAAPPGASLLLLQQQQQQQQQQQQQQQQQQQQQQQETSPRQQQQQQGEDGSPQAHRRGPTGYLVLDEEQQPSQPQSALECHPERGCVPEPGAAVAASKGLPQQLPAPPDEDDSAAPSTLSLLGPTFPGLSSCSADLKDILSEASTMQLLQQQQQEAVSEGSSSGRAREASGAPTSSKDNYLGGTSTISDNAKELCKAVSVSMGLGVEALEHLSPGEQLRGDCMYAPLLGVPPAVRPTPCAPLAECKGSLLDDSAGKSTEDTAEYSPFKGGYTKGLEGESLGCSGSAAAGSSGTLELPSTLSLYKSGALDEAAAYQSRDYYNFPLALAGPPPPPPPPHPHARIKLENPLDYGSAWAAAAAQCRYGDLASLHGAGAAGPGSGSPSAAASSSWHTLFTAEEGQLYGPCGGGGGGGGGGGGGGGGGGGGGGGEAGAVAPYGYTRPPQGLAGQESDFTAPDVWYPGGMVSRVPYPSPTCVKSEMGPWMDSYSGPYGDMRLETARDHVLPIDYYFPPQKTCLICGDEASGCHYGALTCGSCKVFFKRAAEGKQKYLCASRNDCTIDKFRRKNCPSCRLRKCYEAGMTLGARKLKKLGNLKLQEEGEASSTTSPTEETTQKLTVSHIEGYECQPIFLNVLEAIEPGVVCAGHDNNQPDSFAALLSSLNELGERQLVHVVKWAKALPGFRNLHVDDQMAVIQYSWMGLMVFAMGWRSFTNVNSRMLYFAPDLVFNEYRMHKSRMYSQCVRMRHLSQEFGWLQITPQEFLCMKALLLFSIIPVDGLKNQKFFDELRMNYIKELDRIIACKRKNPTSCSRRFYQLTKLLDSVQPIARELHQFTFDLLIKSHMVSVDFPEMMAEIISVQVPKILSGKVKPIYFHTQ
Method: AR-positive human prostate cancer cells VCaP (cell source: ATCC) were cultured in DMEM (GiBco catalog number 11995-065) containing 10% FBS (Hyclone catalog number SH30406.05), and the cells were inoculated in a six-well microplate (Thermo catalog number 140675) at a density of 3 × 10^5 cells/well. After being cultured overnight in a carbon dioxide incubator (ESCO), the prepared compound of the present invention and the positive control sample ARV-766 (energy chemical) solution of different concentrations were added at a volume of 1 µL/well to make the final concentrations of the compound and the positive control sample reach 5nM and 0.5nM, respectively. At the same time, the corresponding solvent control was set and cultured for 8h. After 8h of culture, the culture medium was removed, and the cells were washed with PBS. RIPA lysis buffer containing 1% Protease Inhibitor Cocktail was added. After lysis and centrifugation, a total protein extract was obtained, and the protein concentration in the extract was detected by BCA method. Protein electrophoresis was performed using SDS-PAGE, and then the protein was transferred to a PVDF (Millipore Sigma catalog number PSRP010R5) membrane at a constant voltage of 100V for 60min. The PVDF membrane was placed in a 5% milk powder 1×TBST solution and blocked at room temperature for 1h. The primary antibody solution (Anti-Androgen receptor, Cell Signaling Technology catalog number: 5153S; 1:2000 dilution) was prepared and incubated at 4°C overnight. The primary antibody solution was discarded and the PVDF membrane was washed with 1×TBST for 5 minutes each time, three times. The secondary antibody solution (Thermo catalog number SA5-35571; 1:7500 dilution) was prepared and incubated at room temperature for 1 hour. The secondary antibody solution was discarded and the PVDF membrane was washed with 1×TBST for 5 minutes each time, three times. A dual-color infrared laser imaging system (Licor catalog number Odyssey CLX) was used for Western membrane imaging. The Image Studio software was used to analyze the grayscale of the bands. GAPDH protein bands were also detected for each sample as an internal reference. The AR protein degradation rate of the compound and the positive control sample was calculated based on the grayscale of the protein bands. Among them, "A" means degradation rate ≥ 50%, "B" means 50%> degradation rate ≥ 20%, "C" means 20% degradation rate ≥ 10%, and "D" means degradation rate less than 10%.

Compound | IC50 (VCaP cell) [nM] | Degradation rate of AR protein in VCAP cells (AR protein; 0.5 nM) | Degradation rate of AR protein in VCAP cells (AR protein; 5 nM)
C[C@H]1CC2(CCN(c3ccc(C(=O)N4CCC(CN5CCN6c7ccc(N8CCC(=O)NC8=O)cc7OCC[C@H]6C5)CC4)cc3)CC2)CN1c1ccc(C#N)c(C(F)(F)F)c1 [A-P-195] | 13 | B (50%> degradation rate ≥ 20%) | A (degradation rate ≥ 50%)
COc1cc(O[C@H]2C(C)(C)[C@H](NC(=O)c3ccc(N4CCC(F)(CN5CCN6c7ccc(N8CCC(=O)NC8=O)cc7OCC[C@H]6C5)CC4)cc3)C2(C)C)ccc1C#N [A-P-196] | 1 | A (degradation rate ≥ 50%) | A (degradation rate ≥ 50%)
C[C@H]1CC2(CCN(c3ccc(C(=O)N4CCC(CN5CCC6(COc7cc(N8CCC(=O)NC8=O)ccc76)C(F)(F)C5)CC4)cc3)CC2)CN1c1ccc(C#N)c(Cl)c1 (some centres unmarked) [A-P-233] | 15 |  | B (50%> degradation rate ≥ 20%)
C[C@H]1CC2(CCN(c3ccc(C(=O)N4CCC(CN5CCC6(CC5)CN(C)c5ccc(N7CCC(=O)NC7=O)cc5O6)CC4)cc3)CC2)CN1c1ccc(C#N)c(Cl)c1 [A-P-235, (S)-2-chloro-4-(8-(4-(4-((7-(2,4-dioxotetrahydropyrimidin-1(2H)-yl)-4-methyl-3,4-dihydrospiro[benzo[b][1,4]oxazin-2,4'-piperidine]-1'-yl)methyl)piperidine-1-carbonyl)phenyl)-3-methyl-2,8-diazaspiro[4.5]decane-2-yl)benzonitrile] | 1 | A (degradation rate ≥ 50%) | A (degradation rate ≥ 50%)
COc1cc(O[C@H]2C(C)(C)[C@H](NC(=O)c3ccc(N4CCC(CN5CCN(c6ccc(C(=O)N[C@H]7CCC(=O)NC7=O)c(F)c6)CC5)CC4)cc3)C2(C)C)ccc1C#N [ARV766, reference compound] | 2.5 | A (degradation rate ≥ 50%) | A (degradation rate ≥ 50%)
